Residues, ends and D or L forms follow the SMILES beside them.

Common to all, as to experiment: MIC of phase IIb clinical isolates
What all share (format): cell-based

In one assay the test system is Escherichia coli. Particulars: 22 strains.
The test system of a further assay is Enterobacter cloacae. To be noted: 63 strains.
Another assay deals with Acinetobacter baumannii. To be noted: 31 strains.
The next assay relates to Pseudomonas aeruginosa. To be noted: 74 strains.
A further assay concerns Klebsiella pneumoniae. To be noted: 45 strains.
The test system of assay [1] is Staphylococcus epidermidis. Particulars: 126 strains.
In assay [2] the test system is Staphylococcus haemolyticus. Particulars: 23 strains.
A further assay concerns Enterococcus faecalis. Particulars: 25 strains.
For the next assay, the system named is Staphylococcus aureus. To be noted: 320 strains.

On to `CO/N=C(\C(=O)N[C@@H]1C(=O)N2C(C(=O)O)=C(CSc3nc(=O)c(=O)[nH]n3C)CS[C@H]12)c1csc(N)n1` [Ceftriaxone, ceftriaxone], for which the “Strains Resistant to Control Antibiotics” value is listed as 13 (59.1) n (%) in the assay with Escherichia coli; 8 n (%) in the assay with Enterobacter cloacae; 14 (45.2) n (%) in the assay on Acinetobacter baumannii; 74 (100) n (%) with Pseudomonas aeruginosa; 18 (40.0) n (%) with Klebsiella pneumoniae; “No” in assay [1]. The “Strains Resistant to Control Antibiotics” value in assay [2] is given as “No”; in the assay on Enterococcus faecalis, 25 (100) n (%).

Consider `C[C@@H](O)[C@H]1C(=O)N2C(C(=O)O)=C(SCCN=CN)C[C@H]12` [Imipenem, imipenem], for which the “Strains Resistant to Control Antibiotics” value is listed as 0 n (%) with Escherichia coli; 8 n (%) in the assay with Enterobacter cloacae; 15 (48.4) n (%) with Acinetobacter baumannii; 2 n (%) in the assay with Pseudomonas aeruginosa; 1 n (%) in the assay on Klebsiella pneumoniae.

As to `C[C@H]1COc2c(N3CCN(C)CC3)c(F)cc3c(=O)c(C(=O)O)cn1c23` [Levofloxacin, levofloxacin], the “Strains Resistant to Control Antibiotics” value in the assay on Escherichia coli is recorded as 13 (59.1) n (%); in the assay on Staphylococcus aureus it was 56 (17.5) n (%); with Enterobacter cloacae, 2 n (%); with Acinetobacter baumannii, 5 n (%); in the assay on Pseudomonas aeruginosa, 8 n (%); in the assay with Klebsiella pneumoniae it was 14 (31.1) n (%). Moreover, the “Strains Resistant to Control Antibiotics” value in assay [1] is on record as 41 (32.5) n (%); in [2] it was 14 (60.9) n (%); in the assay with Enterococcus faecalis, 2 n (%).

As for `CC[C@H](C)[C@H](NC(=O)[C@H](C)NC(=O)[C@H](CCCCN)NC(=O)[C@H](CC(C)C)NC(=O)[C@H](C)NC(=O)[C@@H](NC(=O)[C@H](Cc1c[nH]cn1)NC(=O)[C@H](CC(C)C)NC(=O)[C@@H](NC(=O)[C@@H](NC(=O)[C@H](CCCCN)NC(=O)[C@H](C)NC(=O)[C@H](C)NC(=O)[C@H](CO)NC(=O)[C@H](CCCCN)NC(=O)[C@H](Cc1ccccc1)NC(=O)[C@@H](NC(=O)[C@H](CCCCN)NC(=O)[C@H](CC(C)C)NC(=O)[C@H](Cc1ccccc1)NC(=O)[C@H](CO)NC(=O)[C@H](CCCCN)NC(=O)[C@H](Cc1c[nH]c2ccccc12)NC(=O)[C@H](CCCCN)NC(C)=O)[C@@H](C)O)[C@@H](C)O)C(C)C)[C@@H](C)O)C(=O)N[C@@H](CO)C(=O)N[C@@H](CO)C(N)=O` [PL-5, Peceleganan] (Ac-KWKSFLKTFKSAAKTVLHTALKAISS-NH2; N-terminus and C-terminus assumed), the MIC50 with Escherichia coli amounted to 8 µg/mL; in [1] it was 4 µg/mL; in assay [2] it was 2 µg/mL; in the assay on Enterococcus faecalis, 64 µg/mL. For the same molecule, the MIC90 in the assay with Escherichia coli amounted to 16 µg/mL; in the assay with Pseudomonas aeruginosa, 8 µg/mL; in [1] it was 4 µg/mL; in assay [2], 8 µg/mL; in the assay on Enterococcus faecalis, 128 µg/mL.

Consider `CN[C@H](CC(C)C)C(=O)N[C@H]1C(=O)N[C@@H](CC(N)=O)C(=O)N[C@H]2C(=O)N[C@H]3C(=O)N[C@H](C(=O)N[C@H](C(=O)O)c4cc(O)cc(O)c4-c4cc3ccc4O)[C@H](O)c3ccc(c(Cl)c3)Oc3cc2cc(c3O[C@@H]2O[C@H](CO)[C@@H](O)[C@H](O)[C@H]2O[C@H]2C[C@](C)(N)[C@H](O)[C@H](C)O2)Oc2ccc(cc2Cl)[C@H]1O` [Vancomycin, vancomycin], for which the “Strains Resistant to Control Antibiotics” value (with Staphylococcus aureus; in assay [1]; in assay [2]; in the assay on Enterococcus faecalis) was 0 n (%) throughout.

A word on the MIC50: it is an inhibitory concentration at the 50% level, which refers to growth in some studies and to a panel of isolates in others. The MIC90 is the lowest concentration that inhibits either 90% of growth or 90% of the strains tested, depending on the study.
